Legend:
[1] = system: ZIP-like-kinase (SMPP-1M associated kinase, MYPT-kinase); assay: In vitro kinase assay against the Thr697 peptide, native ZIP-like-kinase (MYPT-kinase) compared with ROK; format: biochemical, cow; conditions: levels needed versus ROK
Method: Kinase and phosphatase assays. Kinase assays included 10 μL of enzyme diluted in 25 mM Hepes, pH 7.4, 1 mM DTT, and 100 μM Thr^697 peptide. Reactions were started with addition of 20 μL Mg^2+ ATP (5 mM MgCl2 and 0.1 mM ATP (5000 cpm/nmol) and carried out at 25° C. Reactions were terminated after 20 min with the addition of 100 μL of 20 mM H3PO4. Aliquots (100 μL) of the reaction mixture were spotted on to P81 paper and washed four times with 20 mM H3PO4. The P81 paper was placed into 1.5 mL Eppendorf tubes and ^32P incorporation was determined by scintillation counting. Phosphatase assays were carried out as described (Shirazi et al, J. Biol. Chem. 269:31598-31606 (1994)).
Purification of the SMPP-1M associated kinase. The SMPP-1M associated kinase was isolated from cow bladders following initial steps outlined for purification of SMPP-1M from pig bladder (Shirazi et al, J. Biol. Chem. 269:31598-31606 (1994)). Following extraction of the myofibrillar pellet, the extract was diluted with 2 volumes of buffer C (20 mM Tris, pH 7.5, 25 mM MgCl2, and 1 mM DTT with protease inhibitors), clarified by centrifugation (100,000 g, 45 min) and applied to a 5.0×10-cm column of ethylenediamine γ-linked ATP Sepharose equilibrated in buffer C. […] The purity of SMPP-1M kinase was assessed by SDS-PAGE and silver staining.

[2] = system: ZIP-like-kinase; assay: ZIP-like-kinase activity and phosphorylation in treated rabbit bladder smooth muscle (immunoprecipitates); format: cell-based
[3] = system: ROK; conditions: hypertensive mice; cited from earlier work
[4] = system: MYPT1; assay: MYPT1 phosphorylation in 32P-labeled intact smooth muscle (rabbit bladder); format: cell-based; conditions: carbachol stimulation

In the case of `C[C@@H](N)[C@H]1CC[C@H](C(=O)Nc2ccncc2)CC1` [Y-27632], the “Inhibition of native ZIP-like-kinase (MYPT-kinase): levels relative to those for ROK” value [1] is given as 200 fold, the “Inhibition of ZIP-like-kinase activity” value ([2]; 10 μM, carbachol and calyculin A treated bladder) is given as “significant inhibition” and the Blood pressure [3] is given as “decreased blood pressure”.

In the case of `COC[C@@H]([C@H](O)[C@H](O)C(=O)NCC[C@H](C)c1nc(/C=C/C[C@@H]2O[C@]3(C[C@@H](O)[C@@H]2C)O[C@H]([C@H](C[C@H](O)[C@H](C)[C@H](O)[C@H](C)/C=C(C)/C(C)=C/C=C/C(C)=C\C#N)OC)[C@H](OP(=O)(O)O)C3(C)C)co1)N(C)C` [calyculin A], the “Reduction of ZIP-like-kinase activation in the absence of calyculin A” value ([2]; carbachol-treated bladder without calyculin A) was “about 50%”.

In the case of `C[N+](C)(C)CCOC(N)=O` [carbachol], the “ZIP-like-kinase phosphorylation and activation” value [2] was “phosphorylated and activated” and the “MYPT1 phosphorylation state (four phosphopeptides; major site Thr697)” value [4] was “increased”.
